Laboratory results as given in patent publication US20100286400A1, “CRYSTALLINE SOLVATED FORMS OF (R)-2-[[[3-METHYL-4-(2,2,2-TRIFLUOROETHOXY)-2-PYRIDINYL]METHYL]SULFINYL]-1H-BENZIMIDAZOLE” (TAKEDA PHARMACEUTICAL COMPANY LIMITED, priority 2007, published 2010).

What was measured:
Type in all cases: physicochemical
[1] = Solubility of crystal forms as a suspension of powder in water (HPLC and XRPD)
Procedure: The solubilities of Forms I, II, III, IV and VI of (R)-lansoprazole obtained in the above-mentioned Reference Example 1 and Examples were tested as a suspension of power in water at 25° C. for 5 days. The solid samples of each form were tested as-is by HPLC and XRPD without particle size determination. […] The extent of chemical degradation as a function of time was similar for all forms.

[2] = Relationships among Forms of R(+)-lansoprazole under various conditions
Description: The relationships among Forms of R(+)-lansoprazole were studied under various conditions.

[3] = Interconversion slurries of mixtures of forms in aqueous saturated solutions (XRPD); conditions: slurry in water, ambient, additional time beyond 5 days
Procedure: Mixtures of Forms I, II, III, IV and VI were slurried in aqueous saturated solutions at ambient temperature and up to 40° C. A mixture of Form II and Pattern V material was obtained when the mixture of forms was slurried at ambient temperature for 5 days, despite the absence of Pattern V material as starting material.

SMILES: Cc1c(OCC(F)(F)F)ccnc1C[S@@+]([O-])c1nc2ccccc2[nH]1 [Form I, (R)-2-[[[3-methyl-4-(2,2,2-trifluoroethoxy)-2-pyridinyl]methyl]sulfinyl]-1H-benzimidazole]
- XRPD of residual solids after the solubility study ([1]; after 5 days as a suspension in water at 25° C.): a mixture consisting of Form I (major component) and Form II

SMILES: Cc1c(OCC(F)(F)F)ccnc1C[S@@+]([O-])c1nc2ccccc2[nH]1 [Form II, (R)-2-[[[3-methyl-4-(2,2,2-trifluoroethoxy)-2-pyridinyl]methyl]sulfinyl]-1H-benzimidazole]
- chemical degradation over time ([1]; suspension in water at 25° C. for 5 days): chemically degraded over time
- order of stability in transfer (crystal form conversion) ([2]; according to Experimental Example 2 and 3, most stable first): Form II, Form VI, Form III, Form IV, and Form V, in that order
- appearance on heating ([2]; vial purged with nitrogen, heated to 93° C. in an oil bath): Sample had turned brown in up to 45 seconds, removed

SMILES: Cc1c(OCC(F)(F)F)ccnc1C[S@@+]([O-])c1nc2ccccc2[nH]1 [Pattern V, (R)-2-[[[3-methyl-4-(2,2,2-trifluoroethoxy)-2-pyridinyl]methyl]sulfinyl]-1H-benzimidazole]
- form obtained on additional slurry time [3]: converted to Form II
